This note sets out measurements from ChEMBL document CHEMBL5291721, “A preclinical secondary pharmacology resource illuminates target-adverse drug reaction associations of marketed drugs” (Nat Commun, 2023).

Bounds are passed on as bounds.

For test [1], the target named is T1, Alpha-1A adrenergic receptor (Homo sapiens, UniProt P35348).
T1 sequence (P35348 whole entry): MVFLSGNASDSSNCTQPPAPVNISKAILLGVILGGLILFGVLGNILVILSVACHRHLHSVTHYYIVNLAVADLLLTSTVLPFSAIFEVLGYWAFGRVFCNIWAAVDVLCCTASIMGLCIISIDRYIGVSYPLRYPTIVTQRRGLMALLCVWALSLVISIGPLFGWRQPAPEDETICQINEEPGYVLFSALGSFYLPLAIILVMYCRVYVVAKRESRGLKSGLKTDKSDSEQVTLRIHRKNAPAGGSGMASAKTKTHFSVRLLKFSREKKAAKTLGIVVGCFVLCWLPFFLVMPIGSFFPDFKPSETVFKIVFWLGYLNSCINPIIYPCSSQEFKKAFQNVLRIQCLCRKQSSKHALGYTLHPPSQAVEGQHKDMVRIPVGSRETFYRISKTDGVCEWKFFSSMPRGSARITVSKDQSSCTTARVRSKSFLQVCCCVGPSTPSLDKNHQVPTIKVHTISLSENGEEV
The class given is functional, cell-based.

Test [2] concerns the target T2, 5-hydroxytryptamine receptor 1A (Homo sapiens, UniProt P08908).
T2 sequence (P08908 whole entry): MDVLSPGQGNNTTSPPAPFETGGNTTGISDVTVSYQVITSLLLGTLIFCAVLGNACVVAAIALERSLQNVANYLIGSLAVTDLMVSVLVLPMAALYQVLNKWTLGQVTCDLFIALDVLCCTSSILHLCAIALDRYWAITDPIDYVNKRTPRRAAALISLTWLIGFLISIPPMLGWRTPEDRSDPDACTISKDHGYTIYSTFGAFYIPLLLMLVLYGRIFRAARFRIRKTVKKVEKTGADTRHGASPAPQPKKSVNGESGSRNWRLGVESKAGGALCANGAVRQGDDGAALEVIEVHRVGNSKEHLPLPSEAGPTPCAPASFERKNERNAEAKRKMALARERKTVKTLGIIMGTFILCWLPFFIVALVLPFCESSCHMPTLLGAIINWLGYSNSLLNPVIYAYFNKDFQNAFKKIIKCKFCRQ
It counts as functional, cell-based.

A further test addresses T3, B2 bradykinin receptor (Homo sapiens, UniProt P30411).
T3 sequence (P30411 whole entry): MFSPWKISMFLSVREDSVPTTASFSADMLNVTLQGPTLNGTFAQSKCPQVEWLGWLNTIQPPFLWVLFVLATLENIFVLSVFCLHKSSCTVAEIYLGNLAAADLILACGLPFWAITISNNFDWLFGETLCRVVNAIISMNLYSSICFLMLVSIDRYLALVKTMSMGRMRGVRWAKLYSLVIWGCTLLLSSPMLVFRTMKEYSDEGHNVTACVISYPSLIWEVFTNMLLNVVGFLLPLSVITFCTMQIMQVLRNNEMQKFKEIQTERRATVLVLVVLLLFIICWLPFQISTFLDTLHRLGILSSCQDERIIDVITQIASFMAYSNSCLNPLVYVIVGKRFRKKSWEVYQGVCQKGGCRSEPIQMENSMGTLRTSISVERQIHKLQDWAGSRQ

The next test has as its target Histamine H1 receptor (Homo sapiens, UniProt P35367).
Test [3] concerns the target T4, Alpha-2A adrenergic receptor (Homo sapiens, UniProt P08913).
T4 sequence (P08913 whole entry): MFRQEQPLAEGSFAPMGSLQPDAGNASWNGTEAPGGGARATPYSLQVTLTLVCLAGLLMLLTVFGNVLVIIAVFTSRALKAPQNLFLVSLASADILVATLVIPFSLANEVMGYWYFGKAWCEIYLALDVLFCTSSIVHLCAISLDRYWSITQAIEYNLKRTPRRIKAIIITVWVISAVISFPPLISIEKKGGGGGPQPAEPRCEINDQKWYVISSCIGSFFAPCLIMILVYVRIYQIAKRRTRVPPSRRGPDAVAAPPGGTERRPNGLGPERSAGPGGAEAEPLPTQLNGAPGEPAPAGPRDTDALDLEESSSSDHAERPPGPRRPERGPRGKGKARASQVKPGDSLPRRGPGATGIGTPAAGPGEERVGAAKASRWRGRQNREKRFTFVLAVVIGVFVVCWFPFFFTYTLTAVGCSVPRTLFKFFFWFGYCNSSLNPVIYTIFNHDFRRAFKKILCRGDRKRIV
It counts as functional, cell-based.

Test [4] deals with T5, Gastrin/cholecystokinin type B receptor (Homo sapiens, UniProt P32239).
T5 sequence (P32239 whole entry): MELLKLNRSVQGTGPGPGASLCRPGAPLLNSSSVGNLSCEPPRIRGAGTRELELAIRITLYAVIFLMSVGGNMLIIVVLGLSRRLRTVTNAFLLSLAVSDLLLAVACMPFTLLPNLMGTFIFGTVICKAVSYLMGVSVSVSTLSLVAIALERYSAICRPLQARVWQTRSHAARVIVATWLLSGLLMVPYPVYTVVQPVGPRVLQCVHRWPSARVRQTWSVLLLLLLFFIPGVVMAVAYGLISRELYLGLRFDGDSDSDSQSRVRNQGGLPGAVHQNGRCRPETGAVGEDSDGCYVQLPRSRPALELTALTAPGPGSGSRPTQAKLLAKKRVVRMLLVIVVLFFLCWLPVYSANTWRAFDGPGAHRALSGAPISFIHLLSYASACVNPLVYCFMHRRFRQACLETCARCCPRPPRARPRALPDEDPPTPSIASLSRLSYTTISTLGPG

For the next test, the target named is T6, Adenosine receptor A1 (Homo sapiens, UniProt P30542).
T6 sequence (P30542 whole entry): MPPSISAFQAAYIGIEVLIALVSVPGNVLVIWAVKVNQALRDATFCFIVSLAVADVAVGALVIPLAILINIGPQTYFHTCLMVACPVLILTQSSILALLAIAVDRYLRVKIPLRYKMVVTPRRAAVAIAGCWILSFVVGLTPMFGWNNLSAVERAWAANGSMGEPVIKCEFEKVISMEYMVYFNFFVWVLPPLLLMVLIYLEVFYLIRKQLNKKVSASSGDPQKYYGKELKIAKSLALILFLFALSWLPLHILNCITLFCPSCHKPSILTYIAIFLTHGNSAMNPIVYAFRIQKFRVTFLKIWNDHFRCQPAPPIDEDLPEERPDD

For test [5], the target named is 5-hydroxytryptamine receptor 2A (Homo sapiens, UniProt P28223). It counts as functional, cell-based.
5-hydroxytryptamine receptor 2A, sequence (P28223 whole entry): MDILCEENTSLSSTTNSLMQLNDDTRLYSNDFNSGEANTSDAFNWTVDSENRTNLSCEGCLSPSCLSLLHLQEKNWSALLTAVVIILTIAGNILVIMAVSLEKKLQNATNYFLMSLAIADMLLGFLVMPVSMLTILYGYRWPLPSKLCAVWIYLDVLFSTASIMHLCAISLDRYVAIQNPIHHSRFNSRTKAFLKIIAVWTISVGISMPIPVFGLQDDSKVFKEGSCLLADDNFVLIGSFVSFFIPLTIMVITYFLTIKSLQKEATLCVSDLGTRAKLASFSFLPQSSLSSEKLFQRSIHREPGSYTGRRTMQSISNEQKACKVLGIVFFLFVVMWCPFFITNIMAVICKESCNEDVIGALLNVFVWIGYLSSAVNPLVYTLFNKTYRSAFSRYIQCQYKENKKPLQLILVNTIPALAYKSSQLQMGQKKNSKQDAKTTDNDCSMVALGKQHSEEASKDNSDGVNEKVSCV
Test [6] addresses 5-hydroxytryptamine receptor 2B (Homo sapiens, UniProt P41595). The class given is functional, cell-based.
For test [7], the target named is Muscarinic acetylcholine receptor M3 (Homo sapiens, UniProt P20309).
Muscarinic acetylcholine receptor M3, sequence (P20309 whole entry): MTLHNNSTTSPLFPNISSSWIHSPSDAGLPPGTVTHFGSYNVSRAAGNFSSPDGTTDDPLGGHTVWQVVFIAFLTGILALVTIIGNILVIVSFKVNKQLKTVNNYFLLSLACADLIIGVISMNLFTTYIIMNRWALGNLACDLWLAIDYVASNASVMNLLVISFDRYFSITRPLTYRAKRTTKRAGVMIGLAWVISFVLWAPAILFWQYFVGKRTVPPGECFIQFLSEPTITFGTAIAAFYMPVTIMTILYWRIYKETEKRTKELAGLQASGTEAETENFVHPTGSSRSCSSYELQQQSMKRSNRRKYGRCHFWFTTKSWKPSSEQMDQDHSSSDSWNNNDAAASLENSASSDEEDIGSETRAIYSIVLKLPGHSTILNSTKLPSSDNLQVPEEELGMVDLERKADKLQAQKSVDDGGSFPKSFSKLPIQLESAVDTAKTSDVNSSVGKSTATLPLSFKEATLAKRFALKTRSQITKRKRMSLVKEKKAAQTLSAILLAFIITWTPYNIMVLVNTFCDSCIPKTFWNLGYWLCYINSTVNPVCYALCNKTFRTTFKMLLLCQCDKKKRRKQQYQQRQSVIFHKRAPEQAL
Note: assay procedure not described here.

5-hydroxytryptamine receptor 2B, sequence (P41595 whole entry): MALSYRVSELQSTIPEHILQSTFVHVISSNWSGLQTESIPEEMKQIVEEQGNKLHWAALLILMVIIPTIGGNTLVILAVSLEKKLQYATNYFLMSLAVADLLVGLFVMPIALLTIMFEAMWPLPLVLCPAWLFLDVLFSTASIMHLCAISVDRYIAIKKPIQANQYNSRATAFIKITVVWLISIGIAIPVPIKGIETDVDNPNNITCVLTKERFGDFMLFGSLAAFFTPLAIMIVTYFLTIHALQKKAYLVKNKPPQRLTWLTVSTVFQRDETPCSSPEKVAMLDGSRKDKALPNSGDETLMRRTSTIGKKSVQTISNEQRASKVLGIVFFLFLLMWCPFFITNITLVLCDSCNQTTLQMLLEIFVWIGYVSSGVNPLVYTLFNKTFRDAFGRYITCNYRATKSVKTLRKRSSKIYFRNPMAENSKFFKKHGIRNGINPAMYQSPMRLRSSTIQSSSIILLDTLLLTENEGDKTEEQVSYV
Histamine H1 receptor, sequence (P35367 whole entry): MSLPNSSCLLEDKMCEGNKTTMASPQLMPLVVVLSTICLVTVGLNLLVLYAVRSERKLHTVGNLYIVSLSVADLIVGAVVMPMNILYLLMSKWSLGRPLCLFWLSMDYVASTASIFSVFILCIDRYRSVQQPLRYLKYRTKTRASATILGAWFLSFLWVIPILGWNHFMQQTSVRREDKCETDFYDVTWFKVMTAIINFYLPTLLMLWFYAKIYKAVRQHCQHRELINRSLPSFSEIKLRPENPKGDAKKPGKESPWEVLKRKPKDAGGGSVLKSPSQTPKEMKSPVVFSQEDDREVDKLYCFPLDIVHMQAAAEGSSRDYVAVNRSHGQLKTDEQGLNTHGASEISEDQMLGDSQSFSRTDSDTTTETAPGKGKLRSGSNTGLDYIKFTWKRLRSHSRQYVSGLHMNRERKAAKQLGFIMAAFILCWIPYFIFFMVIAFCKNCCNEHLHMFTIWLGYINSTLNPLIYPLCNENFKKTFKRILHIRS

`O=C(O)Cc1cn(-c2ccccc2)nc1-c1ccc(Cl)cc1` [LONAZOLAC]: the concentration at half-maximal activity (AC50) is more than 30 µM in test [1]; more than 30 µM in [2]; more than 30 µM at B2 bradykinin receptor; more than 30 µM on Histamine H1 receptor; more than 30 µM in test [3]; more than 10 µM in test [4]. Also, the AC50 (on Adenosine receptor A1; in test [5]; in [6]; in [7]) was more than 30 µM throughout.

As for `CCCC(CCC)C(=O)O[C@H]1C[C@H]2CC[C@@H](C1)[N+]2(C)C` [ANISOTROPINE], the AC50 (in [1]; in [2]; at B2 bradykinin receptor; at Histamine H1 receptor; in test [3]; in test [4]) was more than 30 µM throughout. For the same molecule, the half-maximal activity concentration (AC50) at Adenosine receptor A1 was more than 30 µM; in test [5], more than 30 µM; in test [6], more than 30 µM; in test [7], 0.036 µM.

`O=C1CN=C(c2ccccc2)c2cc(Cl)ccc2N1CC(F)(F)F` [HALAZEPAM]: the concentration at half-maximal activity (AC50) (in [1]; in test [2]; at B2 bradykinin receptor; on Histamine H1 receptor; in [3]; in [4]) was more than 30 µM throughout. Further, the half-maximal activity concentration (AC50) (on Adenosine receptor A1; in [5]; in [6]; in test [7]) was more than 30 µM in each case.

With `CCC(C(=O)O)c1ccc(CC(C)C)cc1` (stereo not given) [BUTIBUFEN], the AC50 (in test [1]; in test [2]; at B2 bradykinin receptor; at Histamine H1 receptor; in test [3]; in test [4]) was more than 30 µM throughout. Also, the half-maximal activity concentration (AC50) (at Adenosine receptor A1; in test [5]; in test [6]; in test [7]) was more than 30 µM in each case.

Regarding `CCCCCCCCCCCC[N+](C)(C)CCOc1ccccc1` [DOMIPHEN], the AC50 in test [1] was more than 30 µM; in [2], 22 µM; at B2 bradykinin receptor, more than 30 µM; on Histamine H1 receptor, 12 µM; in [3], 13 µM; in test [4], more than 10 µM. The concentration at half-maximal activity (AC50) on Adenosine receptor A1 was more than 30 µM; in test [5] it was more than 30 µM; in test [6], 11 µM; in test [7], 8.4 µM.

With `CCCCC(C)(O)C/C=C/[C@H]1[C@H](O)CC(=O)[C@@H]1CCCCCCC(=O)OC` (stereo not given in full) [MISOPROSTOL], the AC50 (in test [1]; in test [2]; on B2 bradykinin receptor; at Histamine H1 receptor; in test [3]; in test [4]) was more than 30 µM in each case. In addition, the concentration at half-maximal activity (AC50) (at Adenosine receptor A1; in [5]; in test [6]; in test [7]) was more than 30 µM throughout.

`CCCCCCCCOc1ccccc1C(=O)Nc1ccc(C(=O)OCC[N+](C)(CC)CC)cc1` [OTILONIUM BROMIDE]: the AC50 was 12 µM in test [1]; 11 µM in test [2]; more than 30 µM at B2 bradykinin receptor; 19 µM on Histamine H1 receptor; more than 10 µM in test [3]; more than 1 µM in test [4]. Also, the half-maximal activity concentration (AC50) is more than 30 µM on Adenosine receptor A1, more than 30 µM in test [5], 3.1 µM in [6] and 1.7 µM in test [7].

For `CCOc1cc(N)c([N+](=O)[O-])cc1C(=O)NC1CCN(CC2CC=CCC2)CC1` (stereo not given) [CINITAPRIDE], the AC50 in test [1] was more than 30 µM; in test [2], more than 30 µM; at B2 bradykinin receptor, more than 30 µM; on Histamine H1 receptor, 27 µM; in test [3], more than 30 µM; in [4] it was more than 30 µM. In addition, the AC50 at Adenosine receptor A1 was more than 30 µM; in test [5] it was more than 30 µM; in test [6] it was 0.19 µM; in [7] it was 13 µM.

`C#C[C@]1(O)CC[C@H]2[C@@H]3CCC4=CCCC[C@@H]4[C@H]3CC[C@@]21C` [LYNESTRENOL]: the concentration at half-maximal activity (AC50) (in test [1]; in [2]; at B2 bradykinin receptor; at Histamine H1 receptor; in test [3]; in test [4]) was more than 30 µM each time. Also, the half-maximal activity concentration (AC50) (at Adenosine receptor A1; in test [5]; in test [6]; in test [7]) was more than 30 µM throughout.

With `COc1ccc(C(=O)N2CCN(c3ccc4c(c3)CCC(=O)N4)CC2)cc1OC` [VESNARINONE], the AC50 (in test [1]; in [2]; on B2 bradykinin receptor; at Histamine H1 receptor; in test [3]; in test [4]) was more than 30 µM throughout. Further, the concentration at half-maximal activity (AC50) (on Adenosine receptor A1; in [5]; in [6]; in [7]) was more than 30 µM throughout.

In the case of `Cc1c(Cl)cccc1Nc1ccccc1C(=O)O` [TOLFENAMIC ACID], the half-maximal activity concentration (AC50) in test [1] was more than 30 µM; in [2], more than 30 µM; at B2 bradykinin receptor it was more than 30 µM; at Histamine H1 receptor, more than 30 µM; in test [3], more than 30 µM; in test [4], more than 10 µM. In addition, the half-maximal activity concentration (AC50) (at Adenosine receptor A1; in test [5]; in test [6]; in [7]) was more than 30 µM in each case.

Turning to `C1=Cc2cccc(OCC3CNCCO3)c2C1` (stereo not given) [INDELOXAZINE], the concentration at half-maximal activity (AC50) was more than 30 µM in test [1]; more than 30 µM in [2]; more than 30 µM at B2 bradykinin receptor; 17 µM at Histamine H1 receptor; more than 30 µM in [3]; more than 30 µM in test [4]. Moreover, the AC50 at Adenosine receptor A1 was more than 30 µM; in [5] it was more than 30 µM; in test [6] it was 5.3 µM; in test [7], more than 30 µM.

In general, AC50 refers to the concentration giving half of the maximal activity seen.
